Data on five compounds can be found in US20240083885A1, “COMPOSITIONS AND METHODS FOR INHIBITING M PRO PROTEASE ACTIVITY AND FOR PREVENTING AND TREATING SARS-COV-2 INFECTION” (priority 2020, published 2024).

Several values for one entry are separate records, joined by “and”; a condition that tells them apart may be missing. Identical values can stand only once. Like-named read-outs stand apart in the source and are kept apart here. Where only a bound is given, the exact number is not on record here.

The target in one series is SARS-CoV M^pro (Severe acute respiratory syndrome coronavirus (SARS-CoV), UniProt P0C6X7). Description: biochemical.
In series [1] the target is T1, SARS-CoV-2 M^pro (Severe acute respiratory syndrome coronavirus 2 (2019-nCoV) (SARS-CoV-2), UniProt P0DTD1). Description: biochemical.
Series [2] concerns the target T1, SARS-CoV-2 M^pro. The series can be described thus: biochemical. It is filed as binding.
The target of series [3] is T1, SARS-CoV-2 M^pro. It is filed as binding.
For series [4], the target named is SARS-CoV-2 papain-like protease (PL^pro) (Severe acute respiratory syndrome coronavirus 2 (2019-nCoV) (SARS-CoV-2), UniProt P0DTD1). Description: biochemical.
The target in series [5] is T2, calpain I (Homo sapiens (Human), UniProt P07384). The settings on record: read-out: Additional off targets: Calpain I IC50; cited from earlier work.
In a further series the target is Cathepsin B (Homo sapiens (Human), UniProt P07858). The series can be described thus: Host protease FRET-based enzymatic assay: cathepsin B. Type of series: biochemical. Here is the method: (§1) Enzymatic reactions against host proteases (Calpain I, Cathepisn K, Cathespsin L, Caspase-3 and Trypisn) were carried out as previously described (see, Xia, Z.; et al., ACS Pharmacol. Transl. Sci. 2021). Cathepsin B assay reaction was carried out as follows: Cathepsin B (catalog no. CTB-H5222) was diluted into 100 nM final concentration in a buffer containing 20 mM sodium acetate pH5.5, 1 mM EDTA and 2 mM DTT and the mixture was incubated for 30 min at 30° C. Activated Cathepsin B was further diluted to 500 pm in the reaction buffer (100 mM MES pH6.0, 1 mM EDTA, 2 mM DTT and 0.01% TWEEN 20).

The next series has as its system trypsin. Description: Host protease FRET-based enzymatic assay: trypsin. Type of series: biochemical.
Series [6] addresses T2, calpain I. Description: Host protease FRET-based enzymatic assay: calpain I. It is filed as biochemical. Here is the method: as §1
Series [7] deals with T3, Cathepsin L (Homo sapiens (Human), UniProt P07711). The series can be described thus: Host protease FRET-based enzymatic assay: cathepsin L. It is filed as biochemical. Here is the method:
The cathepsin L enzymatic assay was carried out as follows: human liver cathepsin L (EMD Millipore 219402) was activated by incubating at reaction buffer (20 mM sodium acetate, 1 mM EDTA and 5 mM DTT pH5.5) for 30 min at 30° C. Upon activation, the assay was assembled in 96-well plates with 100 μl of 300 pM cathepsin L protein in cathepsin L reaction buffer. Then 1 μl testing compound at various concentrations was added to each well and incubated at 30° C. for 30 min. The enzymatic reaction was initiated by adding 1 μl of 100 μM FRET substrate Z-Phe-Arg-AMC (the final substrate concentration is about 1 μM). The reaction was monitored in a Cytation 5 image reader with filters for excitation at 360/40 nm and emission at 460/40 nm at 30° C. for 1 hr. The IC50 values were calculated as described in above section.
as §1

The target in series [8] is T3, Cathepsin L. The settings on record: read-out: Cathepsin L IC50; cited from earlier work.
Series [9] concerns SARS-CoV-2. Description: microbe, parasite or virus in culture. It is filed as cell-based. The settings on record: read-out: antiviral EC50 against SARS-CoV-2 in Caco2-hACE2 cells.
The target in another series is caspase-3 (Homo sapiens (Human), UniProt P42574). The series can be described thus: Host protease FRET-based enzymatic assay: caspase-3. Type of series: biochemical. Here is the method: as §1
Sequence of caspase-3 (P42574 29-175 limits assumed): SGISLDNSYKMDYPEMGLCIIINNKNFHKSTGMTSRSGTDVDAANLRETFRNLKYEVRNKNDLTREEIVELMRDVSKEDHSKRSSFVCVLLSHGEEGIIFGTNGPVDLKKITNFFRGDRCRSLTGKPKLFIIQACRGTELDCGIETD
Sequence of caspase-3 (P42574 176-277 limits assumed): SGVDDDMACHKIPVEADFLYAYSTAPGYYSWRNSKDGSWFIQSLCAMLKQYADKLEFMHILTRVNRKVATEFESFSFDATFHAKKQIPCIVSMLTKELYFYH
Series [10] concerns SARS-CoV-2. The series can be described thus: microbe, parasite or virus in culture. It is filed as cell-based. The settings on record: read-out: antiviral EC50 against SARS-CoV-2 in Vero E6 cells.
The target of a further series is cathepsin K (Homo sapiens (Human), UniProt P43235). It is filed as biochemical.
Sequence of cathepsin K (P43235 115-329 limits assumed): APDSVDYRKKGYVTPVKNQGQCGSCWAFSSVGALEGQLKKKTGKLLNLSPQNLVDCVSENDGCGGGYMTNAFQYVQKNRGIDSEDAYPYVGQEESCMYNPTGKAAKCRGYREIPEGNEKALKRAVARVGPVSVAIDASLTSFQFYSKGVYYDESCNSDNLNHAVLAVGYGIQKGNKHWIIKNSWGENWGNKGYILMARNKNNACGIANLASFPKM
Another series concerns Calu-3 cells. The settings on record: human, 5 days.
Series [11] can be described thus: in vitro. The settings on record: human, CC50 in Calu-3 cells.
A short description of series [12]: Cytotoxicity in Vero E6 cells (neutral red uptake). To be noted: African green monkey, CC50 in Vero E6 cells.
Series [13] deals with T1, SARS-CoV-2 M^pro. The series can be described thus: cell-based.
Series [14] is described as follows: in vitro. The settings on record: African green monkey, CC50 in Vero E6 cells.
Series [15] has as its system SARS-CoV-2. The series can be described thus: microbe, parasite or virus in culture. It is filed as cell-based. The settings on record: Severe acute respiratory syndrome coronavirus 2, Calu-3; read-out: antiviral EC50 against SARS-CoV-2 in Calu-3 cells.
For series [16], the target named is T1, SARS-CoV-2 M^pro. The series can be described thus: biochemical. The source holds these as a separate data set.
Where [17] appears, read: read-out: IC50 against SARS-CoV-2 M^pro.
Where [18] appears, read: Severe acute respiratory syndrome coronavirus 2.
The mark [19] stands for this setting: Severe acute respiratory syndrome coronavirus 2, Vero C1008.

T3 sequence (P07711 114-333 limits assumed): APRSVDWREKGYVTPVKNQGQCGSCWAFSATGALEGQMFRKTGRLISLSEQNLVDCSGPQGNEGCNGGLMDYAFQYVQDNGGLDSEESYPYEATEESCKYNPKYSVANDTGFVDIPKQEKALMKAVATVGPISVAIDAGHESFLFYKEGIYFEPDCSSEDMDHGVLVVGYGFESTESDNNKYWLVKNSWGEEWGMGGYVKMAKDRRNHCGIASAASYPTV

For orientation: IC50 means the concentration that gives 50% inhibition. The EC50 is the concentration that produces a half-maximal response. In general, Kd refers to a measure of binding affinity in units of concentration. Read a high Kd as lower affinity. As to `C[C@H](NC(=O)C(c1cccnc1)N(C(=O)c1ccco1)c1ccc(-c2ccccc2)cc1)c1ccccc1` (single isomer, unassigned) [Compound 23R], the IC50 against SARS-CoV M^pro is 0.27 ± 0.03 µM; against SARS-CoV-2 M^pro [1] (IC50 against SARS-CoV-2 M^pro) it was 0.15 µM and 0.13 µM; on SARS-CoV-2 M^pro [1] (SARS-CoV-2 M^pro IC50 (μM)), 0.15 ± 0.03 µM; in series [4] (IC50 against SARS-CoV-2 papain-like protease (PL^pro)), greater than 20 µM; in series [4] (SARS-CoV-2 PL^pro IC50 (μM)) it was greater than 60 µM. Further, the “change of IC50 with pre-incubation time” value on SARS-CoV-2 M^pro [1] is given as “did not lead to significant changes of the IC50 value”. This compound also registered an EC50 on SARS-CoV-2 M^pro [1] (SARS-COV-2 main protease enzymatic inhibition (separated diastereomers, printed as EC50)) of 0.15 µM. At SARS-CoV-2 M^pro [2], the Kd was 9.43 µM. Moreover, on SARS-CoV-2 M^pro [3], the “binding to SARS-CoV-2 M^pro in native mass spectrometry” value was “dose-dependent binding”.

By CC50 is commonly meant the concentration that lowers cell viability or growth by half. For the compound `CC(C)C[C@H](NC(=O)OCc1ccccc1)C(=O)N[C@@H](CC1CCNC1=O)C(O)S(=O)(=O)[O-].[Na+]` (some centres unmarked) [GC-376, reference compound], the IC50 at calpain I [5] is 0.074 µM; in the series on trypsin (read-out: inhibition of trypsin (IC50)), […]; at Cathepsin L [8], 0.00099 µM; at caspase-3 (read-out: inhibition of caspase-3 (IC50)), […]. Besides, the “inhibition of cathepsin B” value at Cathepsin B was “potent inhibition”. In the series on Vero E6 cells, this compound gave a CC50 greater than 125 µM. Besides, at calpain I [6], the “inhibition of calpain I” value was “potent inhibition”. For the same compound, the “inhibition of cathepsin L (IC50)” value on Cathepsin L [7] is recorded as “potent inhibition”. Also, the values for the EC50 in the series on SARS-CoV-2 [9] (Caco2-hACE2 cells) and with SARS-CoV-2 [10] were 2.9 µM and 1.51 µM, respectively. Also, at cathepsin K, the “inhibition of cathepsin K” value was “potent inhibition”.

Consider `C[C@H](NC(=O)C(c1cccnc1)N(C(=O)CCl)c1ccc(-c2ccccc2)cc1)c1ccccc1` (stereo partly drawn) [Jun9-54-1, 2-(N-{[1,1′-biphenyl]-4-yl}-2-chloroacetamido)-N-[(1S)-1-phenylethyl]-2-(pyridin-3-yl)acetamide], for which, in the series with Calu-3 cells, the cytotoxic concentration (CC50) was less than 3.5 µM. This compound also yielded a CC50 at 5 days in “in vitro [11]” of less than 2 µM. Besides, at SARS-CoV-2 M^pro [1] (setting [17]), the IC50 is 0.17 µM.

On to `C[C@H](NC(=O)[C@@H](c1cccnc1)N(C(=O)C(Cl)Cl)c1ccc(-c2ccccc2)cc1)c1ccccc1` [Jun9-62-2R, N-([1,1′-biphenyl]-4-yl)-2,2-dichloro-N-((R)-2-oxo-2-(((S)-1-phenylethyl)amino)-1-(pyridin-3-yl)ethyl)acetamide], for which the “inhibition of cathepsin B” value against Cathepsin B is on record as “did not show potent inhibition”. This compound displayed a CC50 at 5 days in series [12] greater than 100 µM. Further, the “inhibition of trypsin (IC50)” value in the series on trypsin is “did not show potent inhibition”. In addition, on calpain I [6], the “inhibition of calpain I” value is reported as “did not show potent inhibition”. For the same compound, the “change of IC50 with pre-incubation time” value on SARS-CoV-2 M^pro [1] was “longer pre-incubation time gave lower IC50 values”. Besides, the “inhibition of cathepsin L (IC50)” value on Cathepsin L [7] was “did not show potent inhibition”. The EC50 on SARS-CoV-2 M^pro [13] was 0.96 µM; in the series with SARS-CoV-2 [9] (setting [18]), 2.05 µM; in the series on SARS-CoV-2 [10] (setting [19]), 0.9 µM. Further, the “inhibition of caspase-3 (IC50)” value on caspase-3 is “did not show potent inhibition”. Further, on cathepsin K, the “inhibition of cathepsin K” value is “did not show potent inhibition”.

As usually defined, the kinact/KI is the maximal inactivation rate divided by the concentration that gives half of it. Compound `C[C@H](NC(=O)[C@@H](c1cccnc1)N(C(=O)C(Cl)Cl)c1ccc(-c2ccccc2)cc1)c1ccc(Br)cc1` [Jun9-90-3R] yielded a CC50 at 5 days in the series “in vitro [14]” greater than 100 µM. In addition, the EC50 stood at 2 µM with SARS-CoV-2 [15], 0.91 µM at SARS-CoV-2 M^pro [13], 3.24 µM with SARS-CoV-2 [9] (setting [18]) and 2.07 µM with SARS-CoV-2 [10] (setting [19]). For the same compound, on SARS-CoV-2 M^pro [1] (setting [17]), the IC50 worked out at 0.3 µM. Further, the kinact/KI on SARS-CoV-2 M^pro [16] is 1540 M⁻¹ s⁻¹.
